Reference: US9938260B2, “Soluble guanylate cyclase activators and their use” (GlaxoSmithKline Intellectual Property Development Limited, priority 2014, dated 2018)
Structures can show the parent of a compound that is named as a salt.

Target: T1, soluble guanylate cyclase (sGC) (Rattus norvegicus, UniProt P20595)
T1 construct: endogenous in cells; host or cells: primary rat aortic smooth muscle cells
T1 sequence (P20595 1-619): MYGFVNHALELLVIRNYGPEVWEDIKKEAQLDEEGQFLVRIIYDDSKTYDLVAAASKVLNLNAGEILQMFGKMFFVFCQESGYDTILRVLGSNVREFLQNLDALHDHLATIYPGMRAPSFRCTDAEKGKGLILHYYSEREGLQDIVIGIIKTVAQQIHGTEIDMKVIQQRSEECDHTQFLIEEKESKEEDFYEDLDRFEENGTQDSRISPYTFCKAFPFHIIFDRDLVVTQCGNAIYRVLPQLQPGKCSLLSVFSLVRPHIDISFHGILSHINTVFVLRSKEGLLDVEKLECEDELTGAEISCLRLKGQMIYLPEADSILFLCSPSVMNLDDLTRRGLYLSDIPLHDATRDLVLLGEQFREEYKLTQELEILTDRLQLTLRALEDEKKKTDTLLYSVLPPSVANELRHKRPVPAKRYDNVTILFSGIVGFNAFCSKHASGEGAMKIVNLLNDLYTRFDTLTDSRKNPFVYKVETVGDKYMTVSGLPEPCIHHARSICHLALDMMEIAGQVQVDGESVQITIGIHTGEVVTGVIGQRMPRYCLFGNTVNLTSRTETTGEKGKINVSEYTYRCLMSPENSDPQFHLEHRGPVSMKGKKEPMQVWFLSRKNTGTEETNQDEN
T1 sequence (P19686 1-690 partner): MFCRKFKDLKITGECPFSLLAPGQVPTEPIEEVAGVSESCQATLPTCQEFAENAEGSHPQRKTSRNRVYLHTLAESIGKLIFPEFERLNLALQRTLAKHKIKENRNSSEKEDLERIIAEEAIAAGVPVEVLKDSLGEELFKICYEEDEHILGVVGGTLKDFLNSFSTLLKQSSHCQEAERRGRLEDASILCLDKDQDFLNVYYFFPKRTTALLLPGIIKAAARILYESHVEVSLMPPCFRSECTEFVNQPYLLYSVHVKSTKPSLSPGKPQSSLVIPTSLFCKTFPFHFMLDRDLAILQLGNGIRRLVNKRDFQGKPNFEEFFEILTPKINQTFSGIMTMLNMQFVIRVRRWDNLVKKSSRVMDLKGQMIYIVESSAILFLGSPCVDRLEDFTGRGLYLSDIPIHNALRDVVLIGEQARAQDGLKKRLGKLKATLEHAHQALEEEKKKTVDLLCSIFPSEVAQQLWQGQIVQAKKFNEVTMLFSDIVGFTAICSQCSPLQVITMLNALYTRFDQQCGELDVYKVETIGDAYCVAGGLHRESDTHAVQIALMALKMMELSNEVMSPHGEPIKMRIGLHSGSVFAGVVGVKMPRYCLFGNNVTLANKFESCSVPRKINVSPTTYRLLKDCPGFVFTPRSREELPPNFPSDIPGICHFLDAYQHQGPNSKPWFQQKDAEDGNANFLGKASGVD
Assay: Biological cellular assay: sGC activity by phosphorylation of VASP in rat aortic smooth muscle cells
Assay type: cell-based
Settings: primary rat aortic smooth muscle cells, pre-incubated with 10 μM ODQ, 30 min at 37° C., phospho-VASP (pSer239) fluorescent signal; read-out: Cell assay pEC50 (converted)
Experimental: The activity of soluble guanylate cyclase (sGC) was tested in an assay based on measuring phosphorylation of the protein kinase G (PKG) substrate vasodilator-stimulated phosphoprotein (VASP) in rat aortic smooth muscle cells. […] Dimethylsulfoxide (DMSO) vehicle and varying concentrations of the compound to be tested were then added. Following a 30 min incubation at 37° C., media was aspirated and the cells were rinsed with phosphate-buffered saline (PBS) and fixed with 4% formaldehyde in PBS by incubating at room temperature for 20 min. Cells were then washed with PBS and permeabilized for 10 min using 0.1% triton X-100 in PBS. Following PBS rinsing, the cells were blocked for 90 min at room temperature with blocking buffer. The buffer was aspirated and the cells were treated overnight at 4° C. with primary antibody (pSer239-VASP, rabbit polyclonal Ab) diluted 1:500 in blocking buffer. Following three washes with 0.05% Tween 20, the cells were treated for 1 h at room temperature with a fluorescent labeled secondary antibody (IRDye® 800CW Donkey Anti-Rabbit IgG) diluted 1:2500 in blocking buffer with 0.05% Tween 20. Following two washes with PBS, infrared fluorescence was measured using an Odyssey Infrared Imaging System. The activity of a test compound was determined as the pEC50 value which is the concentration able to increase by 50% (vs. Bmax) the phospho-VASP fluorescent signal. Front. Pharmacol., 5 Jul. 2012|doi: 10.3389/fphar.2012.00128, Volume 3 July, 2012, Article number 128.

SMILES	EC50 [nM]
Cc1cc(C2CCN(C(=O)CO)CC2)ccc1COc1c(F)cc(F)cc1-c1cccc(N2CCC(C(=O)O)CC2)n1 [Example 57, 1-(6-(3,5-difluoro-2-((4-(1-(2-hydroxyacetyl)piperidin-4-yl)-2-methylbenzyl)oxy)phenyl)pyridin-2-yl)piperidine-4-carboxylic acid, Sodium salt]	0.0794
Cc1nc(C2CCN(C(=O)C3COC3)CC2)ccc1COc1c(F)cc(F)cc1-c1cccc(N2CCC(C(=O)O)CC2)n1 [Example 30, 1-(6-(3,5-difluoro-2-((2-methyl-6-(1-(oxetane-3-carbonyl)piperidin-4-yl)pyridin-3-yl)methoxy)phenyl)pyridin-2-yl)piperidine-4-carboxylic acid, Sodium salt,]	20
Cc1cc(C2CCN(CC(F)(F)F)CC2)ncc1COc1c(F)cc(F)cc1-c1cccc(N2CCC(C(=O)O)CC2)n1 [Example 9, 1-(6-(3,5-difluoro-2-((4-methyl-6-(1-(2,2,2-trifluoroethyl)piperidin-4-yl)pyridin-3-yl)methoxy)phenyl)pyridin-2-yl)piperidine-4-carboxylic acid, sodium salt]	10
Cc1nc(C2CCN(CC#N)CC2)ccc1COc1c(F)cc(F)cc1-c1cccc(N2CCC(C(=O)O)CC2)n1 [Example 27, 1-(6-(2-((6-(1-(cyanomethyl)piperidin-4-yl)-2-methylpyridin-3-yl)methoxy)-3,5-difluorophenyl)pyridin-2-yl)piperidine-4-carboxylic acid, Sodium salt]	39.8
CCOC(=O)C1CCN(c2cccc(-c3cc(F)cc(F)c3OCc3ccc(C4CCN(CC#N)CC4)cc3C)n2)CC1 [Example 1, ethyl 1-(6-(2-((4-(1-(cyanomethyl)piperidin-4-yl)-2-methylbenzyl)oxy)-3,5-difluorophenyl)pyridin-2-yl)piperidine-4-carboxylate]	0.631
Cc1cc(C2CCN(C(=O)CC3CCOC3)CC2)ccc1COc1c(F)cc(F)cc1-c1cccc(N2CCC(C(=O)O)CC2)n1 (stereo not shown) [Example 79, 1-(6-(3,5-difluoro-2-((2-methyl-4-(1-(2-(tetrahydrofuran-3-yl)acetyl)piperidin-4-yl)benzyl)oxy)phenyl)pyridin-2-yl)piperidine-4-carboxylic acid, Sodium salt]	1.26
COCC(=O)N1CCC(c2ccc(COc3c(F)cc(F)cc3-c3cccc(N4CCC(C(=O)O)CC4)n3)c(C)c2)CC1 [Example 60, 1-(6-(3,5-difluoro-2-((4-(1-(2-methoxyacetyl)piperidin-4-yl)-2-methylbenzyl)oxy)phenyl)pyridin-2-yl)piperidine-4-carboxylic acid, Sodium salt]	0.126
Cc1cc(C2CCN(C(=O)CC3COC3)CC2)ccc1COc1c(F)cc(F)cc1-c1cccc(N2CCC(C(=O)O)CC2)n1 [Example 76, 1-(6-(3,5-difluoro-2-((2-methyl-4-(1-(2-(oxetan-3-yl)acetyl)piperidin-4-yl)benzyl)oxy)phenyl)pyridin-2-yl)piperidine-4-carboxylic acid, Sodium salt]	1
Cc1cc(C2CCN(C(=O)C3CCOC3)CC2)ccc1COc1c(F)cc(F)cc1-c1cccc(N2CCC(C(=O)O)CC2)n1 (stereo not shown) [Example 69, 1-(6-(3,5-difluoro-2-((2-methyl-4-(1-(tetrahydrofuran-3-carbonyl)piperidin-4-yl)benzyl)oxy)phenyl)pyridin-2-yl)piperidine-4-carboxylic acid, Sodium salt]	0.251
Cc1cc(C2CCN(C3COC3)CC2)ccc1COc1c(F)cc(F)cc1-c1cccc(N2CCC(C(=O)O)CC2)n1 [Example 39, 1-(6-(3,5-difluoro-2-((2-methyl-4-(1-(oxetan-3-yl)piperidin-4-yl)benzyl)oxy)phenyl)pyridin-2-yl)piperidine-4-carboxylic acid, Sodium salt]	0.794
Cc1nc(C2CCN(CC(F)(F)F)CC2)ccc1COc1c(F)cc(F)cc1-c1cccc(N2CCC(C(=O)O)CC2)n1 [Example 14, 1-(6-(3,5-difluoro-2-((2-methyl-6-(1-(2,2,2-trifluoroethyl)piperidin-4-yl)pyridin-3-yl)methoxy)phenyl)pyridin-2-yl)piperidine-4-carboxylic acid]	10
Cc1cc(C2CCN(CCC(F)(F)F)CC2)ccc1COc1c(F)cc(F)cc1-c1cccc(N2CCC(C(=O)O)CC2)n1 [Example 54, 1-(6-(3,5-difluoro-2-((2-methyl-4-(1-(3,3,3-trifluoropropyl)piperidin-4-yl)benzyl)oxy)phenyl)pyridin-2-yl)piperidine-4-carboxylic acid, Sodium salt]	2.51
Cc1cc(C2CCN(C3CC3)CC2)ccc1COc1c(F)cc(F)cc1-c1cccc(N2CCC(C(=O)O)CC2)n1 [Example 45, 1-(6-(2-((4-(1-cyclopropylpiperidin-4-yl)-2-methylbenzyl)oxy)-3,5-difluorophenyl)pyridin-2-yl)piperidine-4-carboxylic acid, Sodium salt]	3.16
